Laboratory results taken from patent publication US12102635B2, “Methods of using protein palmitoylations inhibitors” (priority 2021, dated 2024).
Values joined by “and” are separate entries in the source; they are usually repeats but may differ in a detail not shown here. Identical values can stand only once.

Assays:
[1] = test system: SARS-CoV-2; format: cell-based
[2] = test system: SARS-CoV-2 spike protein; format: cell-based
[3] = target: T1, yeast homolog of DHHC9 (Saccharomyces cerevisiae, UniProt Q06551); conditions: previous screen; cited from earlier work
T1 sequence (Q06551 1-359): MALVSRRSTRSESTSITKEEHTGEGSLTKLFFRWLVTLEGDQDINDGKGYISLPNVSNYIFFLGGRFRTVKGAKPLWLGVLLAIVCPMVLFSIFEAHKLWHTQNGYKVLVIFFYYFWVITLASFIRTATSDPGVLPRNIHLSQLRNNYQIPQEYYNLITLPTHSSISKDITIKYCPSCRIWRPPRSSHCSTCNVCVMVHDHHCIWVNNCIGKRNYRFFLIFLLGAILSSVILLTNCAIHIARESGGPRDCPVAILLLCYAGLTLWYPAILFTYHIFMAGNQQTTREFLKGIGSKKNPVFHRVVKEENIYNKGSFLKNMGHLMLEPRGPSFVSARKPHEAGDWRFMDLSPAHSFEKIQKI
T1 sequence (P41912 1-237 partner): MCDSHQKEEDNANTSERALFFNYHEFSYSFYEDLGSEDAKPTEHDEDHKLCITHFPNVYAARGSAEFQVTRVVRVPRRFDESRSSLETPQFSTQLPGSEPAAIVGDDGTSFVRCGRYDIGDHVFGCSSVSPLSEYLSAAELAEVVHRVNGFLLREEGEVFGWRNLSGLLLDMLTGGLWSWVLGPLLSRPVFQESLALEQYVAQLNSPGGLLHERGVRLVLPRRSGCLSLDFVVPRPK

[4] = test system: HEK293T cells; conditions: for observable toxicity: XTT, concentrations below 3 μM, relative to DMSO
[5] = test system: SARS-CoV-2 spike protein; format: cell-based, human
[6] = test system: Caco-2 cells; conditions: XTT, concentrations below 3 μM, relative to DMSO
[7] = test system: SARS-CoV-2-mNG; format: cell-based
[8] = test system: SARS-COV-2 spike pseudotyped lentivirus; format: cell-based
[9] = test system: GAPDH; format: cell-based, human; conditions: 10 μM, HEK293T cells
[10] = test system: SARS-COV-2 spike pseudotyped lentivirus; format: cell-based; remark: listed apart in the source
[11] = test system: SARS-COV-2 spike pseudotyped lentivirus; format: cell-based; remark: listed apart in the source

In the case of CC(C)Cc1ccc(C(C)CN2CCN(CCCC[C@H]3CNCCN3CCc3cc(C(F)(F)F)cc(C(F)(F)F)c3)C[C@@H]2Cc2ccc(O)cc2)cc1 (stereo partly drawn) [Compound 3, 4-(((2S)-4-(4-((S)-1-(3,5-bis(trifluoromethyl)phenethyl)piperazin-2-yl)butyl)-1-(2-(4-isobutylphenyl)propyl)piperazin-2-yl)methyl) phenol], the “reduction viral infection of Vero-E6 cells” value [1] is given as 76%, the “reduction of palmitoylation of the spike protein” value [2] is given as 44% and the inhibition of palmitoylation [3] is given as “low micromolar concentrations”. The maximal non-toxic concentration [4] was 3 µM, the observable toxicity [4] was “no observable toxicity” and the “reduction in syncytia formation” value [5] was 45% and 50%. For the same compound, the observable toxicity [6] was “no observable toxicity”, the mNeonGreen signal [7] was “dose dependent reduction in mNeonGreen signal” and the “quantity of pseudovirus released from the producer cells (egress)” value [8] was “do not reduce the quantity of pseudovirus released”.
For CC(C)Cc1ccc(C(C)CN2CCNC[C@@H]2CCCCN2CCN(CC(C)c3ccc(CC(C)C)cc3)[C@@H](Cc3ccc(O)cc3)C2)cc1 (stereo partly drawn) [Compound 2, 4-(((2S)-1-(2-(4-isobutylphenyl)propyl)-4-(4-((2S)-1-(2-(4-isobutylphenyl)propyl)piperazin-2-yl)butyl)piperazin-2-yl)methyl) phenol], the “reduction viral infection of Vero-E6 cells” value [1] is given as 60%, the “reduction of palmitoylation of the spike protein” value [2] is given as 37% and the inhibition of palmitoylation [3] is given as “low micromolar concentrations”. The maximal non-toxic concentration [4] was 3 µM, the observable toxicity [4] was “no observable toxicity” and the “reduction in syncytia formation” value [5] was 58% and 60%. For the same compound, the observable toxicity [6] was “no observable toxicity”, the mNeonGreen signal [7] was “dose dependent reduction in mNeonGreen signal” and the “quantity of pseudovirus released from the producer cells (egress)” value [8] was “do not reduce the quantity of pseudovirus released”.
In the case of CCCCCCCCCCCCCCC(Br)C(=O)O (centres unmarked) [Compound 2-BP, 2-bromopalmitic acid, reference compound], the GAPDH palmitoylation [9] is reported as “reduced”, the spike palmitoylation [2] is reported as “inhibited spike palmitoylation” and the “pseudovirus infection (luciferase)” value [10] is reported as “significant reduction in pseudovirus infection”. The mNeonGreen signal [7] was “dose dependent reduction in mNeonGreen signal” and the “luciferase signal (pseudovirus infection)” value [11] was “reduced luciferase signal significantly”.
